Patent publication US20030220309A1, “17-methylenandrostan-3alpha-ol analogs as CRH inhibitors” (Pherin Pharmaceuticals, Inc., priority 2001, published 2003)

Assays:
[1] = test system: normal adult male and female human volunteers; assay: Sleep evaluation after administration to the vomeronasal organ of normal human volunteers; assay type: in vivo; design: key: increase (↑); decrease (↓); no change (=); conditions: 400 pg administered to the VNO before bedtime, normal subjects, males and females combined, change with respect to placebo
Protocol: (§1) 17-Methylenandrost-4-en-3α-ol, 400 pg, or placebo were administered to the vomeronasal organs of normal adult male and female human volunteers using a delivery device which delivered the compound to the opening of the vomeronasal organ in measured quantity (two 2 second “puffs” of a 10^−8 M solution of the active ingredient in propylene glycol, or propylene glycol alone). The study evaluations included objective and subjective evaluations of sleep, a power spectral analysis of the subjects' electroencephalograms, and a pencil-and-paper self-report inventory (ABS-70) of the subjects' effective state.
The table below provides a comparison of the results from the study with 17-methylenandrost-4-en-3α-ol with literature reports on the effects of the effects of the marketed antidepressant paroxetine (Paxil®); where changes in sleep variables are indicated as an increase (↑), decrease (↓), or no change (=) with respect to placebo.
Comparative effects of 17-methylenandrost-4-en-3α-ol, 400 pg administered to the VNO, and paroxetine, 30 mg orally, given before bedtime in normal subjects: […]

[2] = test system: normal adult male and female human volunteers; assay: Power spectral analysis of electroencephalograms after vomeronasal administration; assay type: in vivo; conditions: 400 pg to the vomeronasal organ
Protocol: as §1
Based on this study, 17-methylenandrost-4-en-3α-ol shares antidepressant and stimulant properties with paroxetine and other selective serotonin reuptake inhibitor antidepressants.

CRH = assay: ACTH and cortisol concentrations in plasma and urine (indirect measure of CRH inhibition); assay type: in vivo; conditions: 400 pg to the vomeronasal organ, human volunteers
Protocol: The compounds of this invention are, when administered to the VNO, CRH inhibitors. Their activity as CRH inhibitors in vivo can be measured directly by measurement of the inhibition of CRH or indirectly by the measurement of other hormones, such as ACTH, and steroids, such as cortisol, associated with CRH, as discussed in the Examples.
as §1
(§2) 17-Methylenandrost-4-en-3α-ol also reduces plasma concentrations of ACTH and cortisol, and also reduces cortisol concentration in urine. It also increases, relative to placebo, concentrations of the neurotransmitters norepinephrine and serotonin in blood and their metabolites in urine.

[3] = test system: norepinephrine and serotonin; assay: Neurotransmitter concentrations in blood and metabolites in urine; assay type: in vivo; conditions: relative to placebo, human volunteers
Protocol: as §1, §2

[4] = test system: normal adult male and female human volunteers; assay: Overall outcome of the vomeronasal study (sleep, EEG, self-report); assay type: in vivo; conditions: administration to the vomeronasal organ
Protocol: as §1

normal subjects = test system: normal subjects; design: key: increase (↑); decrease (↓); no change (=); conditions: 30 mg orally before bedtime, change with respect to placebo, from Saletu et al. 1991; cited from earlier work

C=C1CC[C@H]2[C@@H]3CCC4=C[C@H](O)CC[C@]4(C)[C@H]3CC[C@]12C [17-Methylenandrost-4-en-3α-ol]
REM sleep latency [1]: ↑
Sleep efficiency [1]: ↓
Sleep latency [1]: ↑
Stage 1 sleep time [1]: ↑
Stage 2 sleep time [1]: ↑
Stages 3 + 4 sleep time [1]: =
Total REM sleep time [1]: ↓
Total sleep time [1]: ↓
EEG β-wave activity [2]: increased
EEG θ-wave activity [2]: increased
δ-frequency activity in stages S3 and S4 non-REM sleep [2]: increase
plasma concentration of ACTH (CRH; plasma): reduces
plasma concentration of cortisol (CRH; plasma): reduces
cortisol concentration in urine (CRH; urine): reduces
concentration of norepinephrine in blood ([3]; blood): increases
concentration of serotonin in blood ([3]; blood): increases
concentrations of norepinephrine and serotonin metabolites in urine ([3]; urine): increases
overall study result (sleep, EEG, hormones, neurotransmitters) [4]: antidepressant properties

Fc1ccc([C@@H]2CCNC[C@H]2COc2ccc3c(c2)OCO3)cc1 [Paroxetine, paroxetine]
REM sleep latency (normal subjects): ↑
Sleep efficiency (normal subjects): ↓
Sleep latency (normal subjects): ↑
Stage 1 sleep time (normal subjects): ↑
Stage 2 sleep time (normal subjects): =
Stages 3 + 4 sleep time (normal subjects): =
Total REM sleep time (normal subjects): ↓
Total sleep time (normal subjects): ↓
